In ChEMBL document CHEMBL3868641, “Discovery, characterization and biological evaluation of a novel (R)-4,4-difluoropiperidine scaffold as dopamine receptor 4 (D4R) antagonists” (Bioorg Med Chem Lett, 2016):

Tests used:
[1] = Displacement of [3H]Spiperone from recombinant human Dopamine D4.4 receptor expressed in CHO-K1 cell membranes after 120 mins
[2] = Displacement of [3H]Spiperone from recombinant human Dopamine D4.4 receptor expressed in CHO-K1 cell membranes at 10 uM after 120 mins relative to control

In the case of Clc1ccc(CN2CCO[C@H](CCc3ccccc3)C2)cc1, the IC50 [1] is reported as 130 nM and the Ki [1] is reported as 36 nM.

In the case of COc1ccc(CN2CCO[C@H](COc3ccccc3)C2)cc1F, the IC50 [1] is reported as 56 nM and the Ki [1] is reported as 14.3 nM.

Work on Fc1ccccc1CC[C@H]1CN(Cc2c[nH]c3cc(Cl)ccc23)CCC1(F)F yielded an IC50 [1] of 5990 nM, a Ki [1] of 1660 nM and an inhibition [2] of 59%.

Fc1ccc(CC[C@H]2CN(Cc3c[nH]c4cc(Cl)ccc34)CCC2(F)F)cc1 showed an IC50 [1] of 3200 nM, a Ki [1] of 890 nM and an inhibition [2] of 73%.

With Cc1ccc(CN2CCC(F)(F)[C@@H](CCc3ccccc3)C2)cc1C the IC50 [1] was > 10000 nM.

In the case of COc1ccc2cc(CN3CCC(F)(F)[C@@H](CCc4ccccc4)C3)c(OC)nc2c1, the inhibition [2] is reported as 25%.

Molecule FC1(F)CCN(Cc2c[nH]c3cc(Cl)ccc23)C[C@@H]1CCc1ccccc1 has an inhibition [2] of 58%.

Molecule Fc1ccc2c(CN3CCC(F)(F)[C@@H](CCc4ccccc4)C3)c[nH]c2c1 has an inhibition [2] of 64%.

Molecule Fc1ccccc1CCC1CN(Cc2ccc(Cl)cc2)CCC1(F)F (racemic) has an IC50 [1] of 98 nM, a Ki [1] of 27 nM and an inhibition [2] of 92%.

For Fc1ccc2c(CN3CCC(F)(F)C(CCc4ccccc4F)C3)c[nH]c2c1 (racemic), the IC50 [1] was 31 nM, the Ki [1] was 8.6 nM and the inhibition [2] was 95%.

Fc1ccccc1CCC1CN(Cc2ncn3ccccc23)CCC1(F)F (racemic) showed an IC50 [1] of 150 nM, a Ki [1] of 42 nM and an inhibition [2] of 92%.

CCOc1ccccc1CN1CCC(F)(F)C(CCc2ccccc2)C1 (racemic) gave an inhibition [2] of 49%.

Molecule COc1ccc(CN2CCC(F)(F)C(CCc3ccccc3)C2)cc1OC (racemic) has an inhibition [2] of 77%.

Work on COc1cccc(CCC2CN(Cc3ccc(Cl)cc3)CCC2(F)F)c1 (racemic) yielded an inhibition [2] of 67%.

With COc1cccc(CCC2CN(Cc3ncn4ccccc34)CCC2(F)F)c1 (racemic) the inhibition [2] was 66%.

With COc1cccc2ccc(CN3CCC(F)(F)C(CCc4ccccc4)C3)nc12 (racemic) the inhibition [2] was 54%.

COc1ccccc1CCC1CN(Cc2c[nH]c3cccc(F)c23)CCC1(F)F (racemic) showed an inhibition [2] of 3%.

Work on FC(F)(F)Oc1ccc(CN2CCC(F)(F)C(CCc3ccccc3)C2)cc1 (racemic) yielded an inhibition [2] of 70%.

With FC(F)(F)c1cc(CN2CCC(F)(F)C(CCc3ccccc3)C2)cc(C(F)(F)F)c1 (racemic) the inhibition [2] was 0%.

For FC(F)(F)c1ccc(CN2CCC(F)(F)C(CCc3ccccc3)C2)cc1 (racemic), the inhibition [2] was 79%.

For FC(F)(F)c1cccc(CN2CCC(F)(F)C(CCc3ccccc3)C2)c1 (racemic), the inhibition [2] was 48%.

FC1(F)CCN(Cc2cc3ccccc3s2)CC1CCc1ccccc1 (racemic) showed an inhibition [2] of 51%.

In the case of FC1(F)CCN(Cc2ccc3[nH]ncc3c2)CC1CCc1ccccc1 (racemic), the inhibition [2] is reported as 68%.

With FC1(F)CCN(Cc2ccc3ccccc3n2)CC1CCc1ccccc1 (racemic) the inhibition [2] was 70%.

With FC1(F)CCN(Cc2cccc(Cl)c2)CC1CCc1ccccc1 (racemic) the inhibition [2] was 55%.

FC1(F)CCN(Cc2cccc3c2OCO3)CC1CCc1ccccc1 (racemic) gave an inhibition [2] of 18%.

Work on FC1(F)CCN(Cc2nc3cc(Cl)ccc3cc2Cl)CC1CCc1ccccc1 (racemic) yielded an inhibition [2] of 16%.

Fc1ccc(CN2CCC(F)(F)C(CCc3ccccc3)C2)c(Cl)c1 (racemic) showed an inhibition [2] of 6%.

Fc1ccc2nc(CN3CCC(F)(F)C(CCc4ccccc4)C3)ccc2c1 (racemic) gave an inhibition [2] of 66%.

With Fc1cccc(CCC2CN(Cc3c[nH]c4cccc(F)c34)CCC2(F)F)c1 (racemic) the inhibition [2] was 59%.

Work on Fc1cccc(CCC2CN(Cc3ncn4ccccc34)CCC2(F)F)c1 (racemic) yielded an inhibition [2] of 78%.

In the case of Fc1cccc(Cl)c1CN1CCC(F)(F)C(CCc2ccccc2)C1 (racemic), the inhibition [2] is reported as 10%.

Molecule Fc1cccc2ccc(CN3CCC(F)(F)C(CCc4ccccc4)C3)nc12 (racemic) has an inhibition [2] of 69%.

Molecule Fc1ccccc1CCC1CN(Cc2c[nH]c3cccc(F)c23)CCC1(F)F (racemic) has an inhibition [2] of 62%.

N#Cc1cc(CN2CCC(F)(F)C(CCc3ccccc3)C2)ccc1F (racemic) gave an inhibition [2] of 66%.

Work on N#Cc1ccccc1CN1CCC(F)(F)C(CCc2ccccc2)C1 (racemic) yielded an inhibition [2] of 10%.
